Laboratory results as given in ChEMBL document CHEMBL4024707, “Using gene expression database to uncover biology functions of 1,4-disubstituted 1,2,3-triazole analogues synthesized via a copper (I)-catalyzed reaction” (Eur J Med Chem, 2017).

Experiments:
[1] = system: HUVEC; assay: Cytotoxicity against HUVEC after 48 hrs by MTT assay; assay type: cell-based; conditions: Homo sapiens
[2] = system: Hep 3B2; assay: Cytotoxicity against human Hep3B cells at 20 uM after 48 hrs by MTT assay relative to control; assay type: functional
[3] = Growth inhibition of HUVEC at 50 uM after 24 hrs by MTT assay relative to control; assay type: cell-based; conditions: human, HUVEC cells; read-out: GI
[4] = system: Hep 3B2; assay: Cell cycle arrest in human Hep3B cells assessed as accumulation at sub-G1 phase at 2.5 uM after 24 hrs by propidium iodide staining based flow cytometry (reference value: 1.9 to 3.6%); assay type: functional
[5] = system: Hep 3B2; assay: Cell cycle arrest in human Hep3B cells assessed as accumulation at sub-G1 phase at 2.5 uM after 48 hrs by propidium iodide staining based flow cytometry (reference value: 1.5 to 6.5%); assay type: functional
[6] = system: Hep 3B2; assay: Cell cycle arrest in human Hep3B cells assessed as accumulation at sub-G1 phase at 2.5 uM after 72 hrs by propidium iodide staining based flow cytometry (reference value: 0.6 to 3.3 %); assay type: functional
[7] = system: Hep 3B2; assay: Cell cycle arrest in human Hep3B cells assessed as accumulation at sub-G1 phase at 5 uM after 24 hrs by propidium iodide staining based flow cytometry (reference value: 1.9 to 3.6%); assay type: functional
[8] = system: Hep 3B2; assay: Cell cycle arrest in human Hep3B cells assessed as accumulation at sub-G1 phase at 5 uM after 48 hrs by propidium iodide staining based flow cytometry (reference value: 1.5 to 6.5%); assay type: functional
[9] = system: Hep 3B2; assay: Cell cycle arrest in human Hep3B cells assessed as accumulation at sub-G1 phase at 5 uM after 72 hrs by propidium iodide staining based flow cytometry (reference value: 0.6 to 3.3%); assay type: functional
[10] = system: Hep 3B2; assay: Cell cycle arrest in human Hep3B cells assessed as accumulation at sub-G1 phase at 10 uM after 24 hrs by propidium iodide staining based flow cytometry (reference value: 1.9 to 3.6%); assay type: functional
[11] = system: Hep 3B2; assay: Cell cycle arrest in human Hep3B cells assessed as accumulation at sub-G1 phase at 10 uM after 48 hrs by propidium iodide staining based flow cytometry (reference value: 1.5 to 6.5%); assay type: functional
[12] = system: Hep 3B2; assay: Cell cycle arrest in human Hep3B cells assessed as accumulation at sub-G1 phase at 10 uM after 72 hrs by propidium iodide staining based flow cytometry (reference value: 0.6 to 3.3%); assay type: functional
[13] = system: Hep 3B2; assay: Cell cycle arrest in human Hep3B cells assessed as accumulation at sub-G1 phase at 20 uM after 72 hrs by propidium iodide staining based flow cytometry (reference value: 0.6 to 3.3%); assay type: functional
[14] = system: Hep 3B2; assay: Cell cycle arrest in human Hep3B cells assessed as accumulation at sub-G1 phase after 24 to 72 hrs by propidium iodide staining based flow cytometry; assay type: functional
[15] = system: Hep 3B2; assay: Cell cycle arrest in human Hep3B cells assessed as accumulation at G0/G1 phase at 5 uM after 72 hrs by propidium iodide staining based flow cytometry (reference value: 41.6 to 46.2%); assay type: functional
[16] = system: Hep 3B2; assay: Cell cycle arrest in human Hep3B cells assessed as accumulation at G0/G1 phase at 10 uM after 24 hrs by propidium iodide staining based flow cytometry (reference value: 36.3 to 39.0%); assay type: functional
[17] = system: Hep 3B2; assay: Cell cycle arrest in human Hep3B cells assessed as accumulation at G0/G1 phase at 20 uM after 24 hrs by propidium iodide staining based flow cytometry (reference value: 36.3 to 39.0%); assay type: functional
[18] = system: Hep 3B2; assay: Cell cycle arrest in human Hep3B cells assessed as accumulation at G0/G1 phase at 20 uM after 72 hrs by propidium iodide staining based flow cytometry (reference value: 41.6 to 46.2%); assay type: functional
[19] = system: Hep 3B2; assay: Cell cycle arrest in human Hep3B cells assessed as accumulation at S phase at 5 uM after 24 hrs by propidium iodide staining based flow cytometry (reference value: 22.6 to 27.1%); assay type: functional
[20] = system: Hep 3B2; assay: Cell cycle arrest in human Hep3B cells assessed as accumulation at S phase at 5 uM after 48 hrs by propidium iodide staining based flow cytometry (reference value: 20.8 to 24%); assay type: functional
[21] = system: Hep 3B2; assay: Cell cycle arrest in human Hep3B cells assessed as accumulation at S phase at 10 uM after 48 hrs by propidium iodide staining based flow cytometry (reference value: 20.8 to 24%); assay type: functional
[22] = system: Hep 3B2; assay: Cell cycle arrest in human Hep3B cells assessed as accumulation at S phase at 10 uM after 72 hrs by propidium iodide staining based flow cytometry (reference value: 16.4 to 21.1%); assay type: functional
[23] = system: Hep 3B2; assay: Cell cycle arrest in human Hep3B cells assessed as accumulation at G2/M phase at 20 uM after 72 hrs by propidium iodide staining based flow cytometry (reference value: 28.7 to 32.3%); assay type: functional
[24] = system: Hep 3B2; assay: Induction of autophagy in human Hep3B cells at 2.5 uM after 24 hrs by acridine orange staining based flow cytometry (reference value: 1.1 to 1.3%); assay type: functional
[25] = system: Hep 3B2; assay: Induction of autophagy in human Hep3B cells at 2.5 uM after 48 hrs by acridine orange staining based flow cytometry (reference value: 0.9 to 3%); assay type: functional
[26] = system: Hep 3B2; assay: Induction of autophagy in human Hep3B cells at 2.5 uM after 72 hrs by acridine orange staining based flow cytometry (reference value: 1.1 to 4%); assay type: functional
[27] = system: Hep 3B2; assay: Induction of autophagy in human Hep3B cells at 5 uM after 24 hrs by acridine orange staining based flow cytometry (reference value: 1.1 to 1.3%); assay type: functional
[28] = system: Hep 3B2; assay: Induction of autophagy in human Hep3B cells at 5 uM after 48 hrs by acridine orange staining based flow cytometry (reference value: 0.9 to 3%); assay type: functional
[29] = system: Hep 3B2; assay: Induction of autophagy in human Hep3B cells at 5 uM after 72 hrs by acridine orange staining based flow cytometry (reference value: 1.1 to 4%); assay type: functional
[30] = system: Hep 3B2; assay: Induction of autophagy in human Hep3B cells at 10 uM after 24 hrs by acridine orange staining based flow cytometry (reference value: 1.1 to 1.3%); assay type: functional
[31] = system: Hep 3B2; assay: Induction of autophagy in human Hep3B cells at 20 uM after 72 hrs by acridine orange staining based flow cytometry (reference value: 1.1 to 4%); assay type: functional
[32] = system: Hep 3B2; assay: Induction of autophagy in human Hep3B cells at 2.5 to 20 uM by acridine orange staining based flow cytometry; assay type: functional, cell-based; conditions: TDE = time-dependent effect
[33] = system: Hep 3B2; assay: Cytotoxicity against human Hep3B cells after 48 hrs by MTT assay; assay type: functional, cell-based
[34] = system: Hep 3B2; assay: Cell cycle arrest in human Hep3B cells assessed as accumulation at sub-G1 phase at 20 uM after 48 hrs by propidium iodide staining based flow cytometry (reference value: 1.5 to 6.5%); assay type: functional
[35] = system: Hep 3B2; assay: Induction of autophagy in human Hep3B cells at 10 uM after 72 hrs by acridine orange staining based flow cytometry (reference value: 1.1 to 4%); assay type: functional
[36] = system: Hep 3B2; assay: Induction of autophagy in human Hep3B cells at 20 uM after 24 hrs by acridine orange staining based flow cytometry (reference value: 1.1 to 1.3%); assay type: functional
[37] = system: Hep 3B2; assay: Induction of autophagy in human Hep3B cells at 20 uM after 48 hrs by acridine orange staining based flow cytometry (reference value: 0.9 to 3%); assay type: functional

SMILES	IC50 [1] [µM]	Activity [4] [%]	Activity [5] [%]	Activity [6] [%]	Activity [7] [%]	Activity [8] [%]	Activity [9] [%]	Activity [10] [%]	Activity [11]	Activity [12] [%]	Activity [13] [%]	Activity [24] [%]	Activity [25] [%]	Activity [26] [%]	Activity [27] [%]	Activity [28] [%]	Activity [29] [%]	Activity [30] [%]	Activity [31] [%]	Activity [32]	other results
CNC(=O)c1cc(Oc2ccc(NC(=O)Nc3ccc(Cl)c(C(F)(F)F)c3)cc2)ccn1 [SORAFENIB]	40.6	5.2	4	5.3	7.3	5	7.2	6.9	11.8%	13.7	65	2	1.3	2.3	2.4	1.5	6.1	3.2	84.9	Tde	Activity [2]: 68.4%; inhibition at 24 h, 50 µM [3]: 60%; Activity [14]: Dose-dependent effect; Activity [15]: 47.8%; Activity [16]: 53.6%; Activity [17]: 45.7%; Activity [18]: 13.6%; Activity [19]: 19.8%; Activity [20]: 13.1%; Activity [21]: 8.8%; Activity [22]: 7.9%; Activity [23]: 15.2%; IC50 [33]: 11.2 µM
COc1ccc(CNC(=O)Nc2ncc([N+](=O)[O-])s2)cc1		3.1	3.4	1.6	4.2	5	2.4	5	3.3%	1.3	2.1	4.7	8.1	6.4	5.3	6.3	10.9	5.9	15.5	Tde	Activity [34]: 3.6%; Activity [15]: 42.4%; Activity [16]: 34.3%; Activity [17]: 33%; Activity [18]: 43.6%; Activity [19]: 25%; Activity [20]: 24.6%; Activity [21]: 23.2%; Activity [22]: 21.5%; Activity [23]: 34.9%; Activity [35]: 13.2%; Activity [36]: 8.9%; Activity [37]: 5.5%
O=C1COc2ccccc2N1Cc1cn(CCC2OCCO2)nn1	115	6.2	6.5	7.9	12.4	14.2	18	22.4	37.4 - 41.4%	54	65.7	1.3	1.9	1.9	1.6	5.1	12.8	2.4	57	Tde	Activity [2]: 53.4%; inhibition at 24 h, 50 µM [3]: 21.5%; Activity [34]: 57.2%; Activity [14]: Dose-dependent effect; Activity [35]: 49.4%; Activity [36]: 5.5%; Activity [37]: 37%; IC50 [33]: 16.8 µM
